According to US20230157993A1, “PHARMACEUTICAL COMPOSITION FOR TREATING OR PREVENTING ALOPECIA INCLUDING DECURSIN” (University-Industry Cooperation Group of Kyung Hee …, priority 2021, published 2023):

How the values were obtained:
[1] = system: CYP-induced alopecia mice; experiment: Skin monitoring of hair growth with a digital dermatoscope in CYP-induced alopecia mice; assay type: in vivo, C57BL/6J mice; details: topical, all concentrations of decursin (1, 10, 100 μM) or 0.1% DEX, FIG. 1
Description: (§1) All animal testing procedures were approved by the Laboratory Animal Care and Use Committee of Kyung Hee University (KHUASP(SE)-13-046). 5-week-old male C57BL/6J mice were purchased from Raonbio Co., Ltd. (Yongin, Korea). All mice were kept in plastic cages at 22±1° C. under 50±5% humidity with 12 hours of light-dark cycles. After 1 week of adaptation, mice were randomly assigned to 6 groups: (1) CTR, normal control group, (2) CYP, cyclophosphamide-induced alopecia group, (3) DEX, dexamethasone (DEX) treated in CYP-induced alopecia mice as positive controls, (4) D1, 1 μM decursin treated in CYP-induced alopecia mice, (5) D10, 10 μM decursin treated in CYP-induced alopecia mice, and (6) D100, 100 μM decursin treated in CYP-induced alopecia mice.
(§2) To synchronize the phases of the hair growth cycle, the dark hairs on the dorsal skin of all mice except the CTR group were shaved on day 0 using a shaving cream. 9 days later, 150 mg/kg of CYP (Sigma-Aldrich, MO, USA) was dissolved in saline and injected one time intraperitoneally into all mice except the CTR group. Injection of CYP induced the stage of hair follicles to turn into dystrophic catagen. From day 9 to day 16, 100 μL of 1, 10 and 100 μM decursin (Sigma-Aldrich) in saline containing 0.1% dimethyl sulfoxide was topically treated onto the shaved dorsal skin once a day. […]

[2] = system: hair follicles of dorsal skin tissues; experiment: Histological analysis (H&E) of dorsal skin hair follicles in CYP-induced alopecia mice; assay type: in vivo, C57BL/6J mice; details: topical decursin, FIG. 2
Description: as §1, §2

[3] = system: keratinocyte growth factor (KGF); experiment: Immunofluorescence assay of KGF+ expression in dorsal skin tissue of CYP-induced alopecia mice; assay type: in vivo, C57BL/6J mice; details: CIA mice, FIG. 3
Description: as §1
To synchronize the phases of the hair growth cycle, the dark hairs on the dorsal skin of all mice except the CTR group were shaved on day 0 using a shaving cream. 9 days later, 150 mg/kg of CYP (Sigma-Aldrich, MO, USA) was dissolved in saline and injected one time intraperitoneally into all mice except the CTR group. Injection of CYP induced the stage of hair follicles to turn into dystrophic catagen. From day 9 to day 16, 100 μL of 1, 10 and 100 μM decursin (Sigma-Aldrich) in saline containing 0.1% dimethyl sulfoxide was topically treated onto the shaved dorsal skin once a day. As a positive control, 0.1% DEX was administered topically to the shaved area on days 1, 3, 5, 7, and 9 to 16. Physiological saline was treated to the CTR and CYP groups during the experiment. […] on day 17, all mice were sacrificed under anesthesia.
Paraffin tissue sections were hydrated with xylene and ethanol, followed by blocking with 1% bovine serum albumin (BSA). The slides were incubated overnight at 4° C. with primary anti-rabbit keratinocyte growth factor (KGF) antibody. Secondary HRP-conjugated fluorescent antibody was treated onto tissue slides for 1 hour at room temperature.

[4] = system: keratinocyte growth factor (KGF); experiment: Immunoblotting of KGF protein expression in skin tissues of CYP-induced alopecia mice; assay type: in vivo, C57BL/6J mice; details: CIA mice; 100 μM decursin topical; FIG. 4
caspase-3 = experiment: Immunoblotting of caspase-3 in TNF-α-stimulated HaCaT keratinocytes; assay type: cell-based, Human; details: HaCaT cells; 10 nM decursin; 100 ng/mL TNF-α, 24 hours; FIG. 5
Description: (§3) Human keratinocyte HaCaT cells were grown at 37° C. under atmosphere with 95% humidity in the presence of 5% CO2, in Dulbecco's modified Eagle's medium (DMEM, Gibco; Thermo Fisher Scientific, Inc., Waltham, Mass., USA) supplemented with 10% v/v fetal bovine serum (FBS, Gibco), 2 mM glutamine, 100 IU/ml penicillin, and 100 μg/mL of streptomycin (Gibco). HaCaT cells were dispensed into 6-well plates by 1×10^6 cells/wells. After stabilization, 1 μM DEX and 0.1, 1, and 10 nM decursin were treated in the presence of 100 ng/mL of TNF-α for 24 hours.
(§4) Proteins were extracted from the collected skin tissues and HaCaT cells using RIPA lysis buffer (Tech & Innovation, Gangwon, Korea) containing a protease inhibitor cocktail (Roche, Hoffmann, USA). Lysates were quantified by the Bradford method and denatured with dodecyl sulfate buffer at 98° C. for 5 minutes. Proteins were electrophoresed onto a polyvinylidene fluoride membrane. The membranes were incubated continuously with primary anti-caspase-3, -7, and -8, followed with secondary HRP-conjugated anti-rabbit and anti-mouse antibodies.

caspase-7 = experiment: Immunoblotting of caspase-7 in TNF-α-stimulated HaCaT keratinocytes; assay type: cell-based, Human; details: HaCaT cells; 10 nM decursin; 100 ng/mL TNF-α, 24 hours; FIG. 5
Description: as §3, §4

caspase-8 = experiment: Immunoblotting of caspase-8 in TNF-α-stimulated HaCaT keratinocytes; assay type: cell-based, Human; details: HaCaT cells; 10 nM decursin; 100 ng/mL TNF-α, 24 hours; FIG. 5
Description: as §3, §4

PI3K = experiment: Expression of PI3K in decursin-treated keratinocytes; assay type: cell-based, Human; details: TNF-α
AKT = experiment: Expression of AKT in decursin-treated keratinocytes; assay type: cell-based, Human; details: TNF-α
ERK = experiment: Expression of ERK in decursin-treated keratinocytes; assay type: cell-based, Human; details: TNF-α
p38 = experiment: Expression of p38 in decursin-treated keratinocytes; assay type: cell-based, Human; details: TNF-α

CC(C)=CC(=O)O[C@H]1Cc2cc3ccc(=O)oc3cc2OC1(C)C [decursin]
hair growth on the dorsal side (dermatoscope), compared to CYP group [1]: hair growth was observed
hair follicle cycle stage (histology) [2]: hair follicles were in the anagen
shape of the ampulla of hair follicles, compared to CYP group [2]: normalized
KGF+ expression in the skin tissue (immunofluorescence) ([3]; 1 μM decursin topical): increased
KGF+ expression in the skin tissue (immunofluorescence) ([3]; 10 μM decursin topical): increased
KGF+ expression in the skin tissue (immunofluorescence) ([3]; 100 μM decursin topical): increased
protein expression of KGF in skin tissues [4]: significantly increased
rate of decrease of TNF-α-induced caspase-3 protein level (caspase-3): 30.41%
rate of decrease of TNF-α-induced caspase-7 protein level (caspase-7): 48.27%
rate of decrease of TNF-α-induced caspase-8 protein level (caspase-8): 41.07%
expression of PI3K (PI3K): suppression
expression of AKT (AKT): suppression
expression of ERK (ERK): suppression
expression of p38 (p38): suppression
